Results taken from patent US20230010299A1, “HETEROCYCLIC TRPML1 AGONISTS” (LIBRA THERAPEUTICS, INC., priority 2019, published 2023).

What follows are compounds tested against T1, TRPML1 (Homo sapiens, UniProt Q9GZU1) (assay: Cellular TRPML1 assay (FLIPR TETRA, GCaMP6f calcium read-out)). Conditions: HEK T-REx/GCaMP6f/TRPML1 cells; Ca2+ response over 300 s, normalized to ML-SA1 50 μM; Ca2+ free or Optimem condition not given; read-out: Ec50 (Activity of TRPML1 agonists).
T1 construct: expressed in transfected cells
T1 sequence (Q9GZU1 whole entry): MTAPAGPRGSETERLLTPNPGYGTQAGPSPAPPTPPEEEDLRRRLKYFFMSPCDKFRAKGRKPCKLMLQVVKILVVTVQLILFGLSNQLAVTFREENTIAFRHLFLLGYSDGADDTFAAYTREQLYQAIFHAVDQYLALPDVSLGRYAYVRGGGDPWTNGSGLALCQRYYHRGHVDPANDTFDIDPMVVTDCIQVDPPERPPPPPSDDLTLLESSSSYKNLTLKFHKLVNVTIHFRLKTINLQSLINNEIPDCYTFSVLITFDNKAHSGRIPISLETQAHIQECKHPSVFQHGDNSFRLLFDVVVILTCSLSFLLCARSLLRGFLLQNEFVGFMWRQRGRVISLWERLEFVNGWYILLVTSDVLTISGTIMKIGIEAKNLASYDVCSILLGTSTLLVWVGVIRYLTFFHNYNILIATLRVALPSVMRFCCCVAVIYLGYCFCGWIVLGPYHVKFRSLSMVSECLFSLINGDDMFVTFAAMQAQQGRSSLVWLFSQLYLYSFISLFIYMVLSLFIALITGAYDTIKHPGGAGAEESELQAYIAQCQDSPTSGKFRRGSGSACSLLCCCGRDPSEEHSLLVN
Format: cell-based
Protocol: Buffers and reagents • PBS (D-PBS without calcium and magnesium; EuroClone) • Trypsin (Trypsin 0.05%, EDTA 0.02% in PBS; EuroClone) • DMSO (Sigma) • Ca^2+ free Tyrode's buffer: in-house solution (130 mM NaCl, 5 mM KCl, 1 mM MgCl2, 5 mM NaHCO3, 20 mM HEPES in water at pH 7.4; sterile filtered). • Opti-MEM (Gibco) • Agonist: ML-SA1 (Sigma); stock: 60 mM in DMSO, stored at −20° C. • Blocker: ML-SI3 (in house synthesis); stock: 20 mM in DMSO, stored at −20° C.
The final clone for the TRPML1 assay is HEK T-REx/GCaMP6f/TRPML1.
GCaMP6f is a genetically encoded calcium indicator that is stably expressed in this cell line and used as a fluorescent read-out.
Experiments are performed in 384 MTP format. Cells are seeded at 15000 cells/well either in 25 μl/well of growth medium or in 20 μl/well of Optimem+0.5% FBS without selection antibiotics. Twenty-four hours later, cells are assayed for the response to various compounds using the Ca^2+ sensitive GCaMP6f protein stably expressed in the cells as readout.
The experiment is performed in a 384-well format according to the following procedures for either Ca^2+ free or Optimem conditions: • Ca^2+ free condition (in absence of extracellular Ca^2+): • 24 h after seeding, pre-incubate the cells at room temperature for about 10′. • Then remove the culture medium and replace it with 20 μL of Ca^2+ free Tyrode's buffer. • Start the experiment at the FLIPR^TETRA by injecting 10 μL/w of 3× concentrated test compounds and controls in Ca^2+ free Tyrode's buffer. Monitor the kinetic response over a period of 300 seconds. • Final DMSO concentration: 0.5% • Optimem condition (in presence of extracellular Ca^2+): • 24 h after seeding, pre-incubate the cells at room temperature for about 10′. • Start the experiment at the FLIPR^TETRA by injecting 10 μL/w of 3× concentrated test compounds and controls in Ca^2+ free Tyrode's buffer. Monitor the kinetic response over a period of 300 seconds. • Final DMSO concentration: 0.5%
Data from FLIPR^TETRA measurements are analyzed with the Genedata Screener® software.
Stimulator controls (Col 2): injection of ML-SA1 EC100 (50 μM) in alternated wells positions
Neutral controls (Col 2): injection of 0 mM Ca^2+ free Tyrode's buffer in alternated wells positions.
Test wells (Col 3-22): test compounds dose response curve from either 100 μM with 1:2 dilution steps or from 50 μM with 1:3.16 dilution steps.

In order of rising EC50:
1. CC(C)c1ccc(S(=O)(=O)Nc2ccccc2N2CCC(C(=O)OC(C)(C)C)CC2)cc1 [Example 29, tert-butyl 1-(2-((4-isopropylphenyl)sulfonamido)phenyl)piperidine-4-carboxylate]  2.3 µM
2. CC1Cc2cc(S(=O)(=O)Nc3ccccc3N3CCN(C(=O)OC(C)(C)C)CC3)ccc2O1 (racemic) [Example 92, tert-butyl 4-(2-((2-methyl-2,3-dihydrobenzofuran)-5-sulfonamido)phenyl)piperazine-1-carboxylate]  2.4 µM
3. CN(C)S(=O)(=O)c1ccc(S(=O)(=O)Nc2ccccc2N2CCC(c3ccccc3)CC2)cc1 [Example 12, N1,N1-dimethyl-N4-[2-(4-phenylpiperidin-1-yl)phenyl]benzene-1,4-disulfonamide]  2.8 µM
4. CC(C)c1ccc(S(=O)(=O)Nc2ccccc2N2CCN(C(=O)OC(C)(C)C)CC2)cc1 [Example 28, tert-butyl 4-(2-((4-isopropylphenyl)sulfonamido)phenyl)piperazine-1-carboxylate]  2.9 µM
5. CCc1ccc(S(=O)(=O)Nc2ccccc2N2CCN(C(=O)OC(C)(C)C)CC2)cc1 [Example 18, tert-butyl 4-(2-((4-ethylphenyl)sulfonamido)phenyl)piperazine-1-carboxylate]  3.5 µM
6. CC1Cc2cc(S(=O)(=O)Nc3ccccc3N3CCN(C(=O)OC(C)(C)C)CC3)ccc2O1 (single isomer, unassigned) [Example 94, tert-butyl 4-(2-((2-methyl-2,3-dihydrobenzofuran)-5-sulfonamido)phenyl)piperazine-1-carboxylate]  3.8 µM
7. COC1CCCN(c2ccccc2NS(=O)(=O)c2ccc(S(=O)(=O)N(C)C)cc2)CC1 (single isomer, unassigned) [Example 41, N1-(2-(4-methoxyazepan-1-yl)phenyl)-N4,N4-dimethylbenzene-1,4-disulfonamide]  4.4 µM
8. CC1Cc2cc(S(=O)(=O)Nc3ccccc3N3CCN(C(=O)OC(C)(C)C)CC3)ccc2O1 (single isomer, unassigned) [Example 93, tert-butyl 4-(2-((2-methyl-2,3-dihydrobenzofuran)-5-sulfonamido)phenyl)piperazine-1-carboxylate]  4.9 µM
9. COC1CCCN(c2ccccc2NS(=O)(=O)c2ccc(S(=O)(=O)N(C)C)cc2)CC1 (single isomer, unassigned) [Example 42, N1-(2-(4-methoxyazepan-1-yl)phenyl)-N4,N4-dimethylbenzene-1,4-disulfonamide]  5.6 µM
10. CN(C(=O)c1ccc(S(=O)(=O)N(C)C)cc1)c1ccccc1N1CCN(C(=O)OC(C)(C)C)CC1 [Example 5, tert-butyl 4-(2-(4-(N,N-dimethylsulfamoyl)-N-methylbenzamido)phenyl)piperazine-1-carboxylate]  6 µM
11. CC(C)Oc1ccc(S(=O)(=O)Nc2ccccc2N2CCC(C(=O)OC(C)(C)C)CC2)cc1 [Example 31, tert-butyl 1-(2-((4-isopropoxyphenyl)sulfonamido)phenyl)piperidine-4-carboxylate]  6 µM
12. COC1CCCN(c2ccccc2NS(=O)(=O)c2ccc(S(=O)(=O)N(C)C)cc2)C1 (stereo not drawn) [Example 36, N4-[2-(3-methoxypiperidin-1-yl)phenyl]-N1,N1-dimethylbenzene-1,4-disulfonamide]  7.3 µM
13. CN(C)S(=O)(=O)c1ccc(S(=O)(=O)Nc2ccccc2N2CCCC(c3ccccc3)C2)cc1 (stereo not drawn) [Example 35, N1,N1-dimethyl-N4-[2-(3-phenylpiperidin-1-yl)phenyl]benzene-1,4-disulfonamide]  7.7 µM
14. CN(C)S(=O)(=O)c1ccc(S(=O)(=O)Nc2ccccc2N2CC3CCC2C3)cc1 (stereo not drawn) [Example 4, N4-(2-{2-azabicyclo[2.2.1]heptan-2-yl}phenyl)-N1,N1-dimethylbenzene-1,4-disulfonamide]  8.4 µM
15. CN(C(=O)c1ccc(S(=O)(=O)N(C)C)cc1)c1ccccc1N1CCC(Oc2ccccn2)CC1 [Example 10, 4-(N,N-dimethylsulfamoyl)-N-methyl-N-(2-(4-(pyridin-2-yloxy)piperidin-1-yl)phenyl)benzamide]  8.4 µM
16. CN(C)S(=O)(=O)c1ccc(S(=O)(=O)Nc2ccccc2N2CCOCC2)cc1 [Example 27, N1,N1-dimethyl-N4-[2-(morpholin-4-yl)phenyl]benzene-1,4-disulfonamide]  13.3 µM
17. CC(C)(C)c1ccc(S(=O)(=O)Nc2ccccc2N2CC3CCC2C3)s1 (stereo not drawn) [Example 16, N-(2-{2-azabicyclo[2.2.1]heptan-2-yl}phenyl)-5-tert-butylthiophene-2-sulfonamide]  14.6 µM
18. Cc1cccc(S(=O)(=O)Nc2ccccc2N2CCCCC2)c1 [Example 23, 3-methyl-N-[2-(piperidin-1-yl)phenyl]benzene-1-sulfonamide]  15.5 µM
19. CN(C)S(=O)(=O)c1ccc(S(=O)(=O)NC2CCCCC2N2CCC(Oc3ccccc3)CC2)cc1 (single isomer, unassigned) [Example 62, N1,N1-dimethyl-N4-[2-(4-phenoxypiperidin-1-yl)cyclohexyl]benzene-1,4-disulfonamide]  15.9 µM
20. CCc1ccc(S(=O)(=O)Nc2ccccc2N2CC3CCC2C3)s1 (stereo not drawn) [Example 17, N-(2-{2-azabicyclo[2.2.1]heptan-2-yl}phenyl)-5-ethylthiophene-2-sulfonamide]  18.2 µM
21. CN(C)S(=O)(=O)c1ccc(S(=O)(=O)Nc2ccccc2N2CCCC2)cc1 [Example 32, N1,N1-dimethyl-N4-[2-(pyrrolidin-1-yl)phenyl]benzene-1,4-disulfonamide]  19.2 µM
22. CCCN(C)C(=O)C1CCN(c2ccccc2NS(=O)(=O)c2ccc(S(=O)(=O)N(C)C)cc2)CC1 [Example 14, 1-(2-((4-(N,N-dimethylsulfamoyl)phenyl)sulfonamido)phenyl)-N-methyl-N-propylpiperidine-4-carboxamide]  19.7 µM
23. O=S(=O)(Nc1ccccc1N1CCCCC1)c1sccc1C1OCCO1 [Example 11, 3-(1,3-dioxolan-2-yl)-N-[2-(piperidin-1-yl)phenyl]thiophene-2-sulfonamide]  33.5 µM
24. CN(C)S(=O)(=O)c1ccc(S(=O)(=O)Nc2ccccc2N2CCc3ccccc3C2)cc1 [Example 9, N1,N1-dimethyl-N4-[2-(1,2,3,4-tetrahydroisoquinolin-2-yl)phenyl]benzene-1,4-disulfonamide]  47.4 µM
25. CN(C)S(=O)(=O)c1ccc(S(=O)(=O)Nc2ccccc2CN2CCCCC2)cc1 [Example 30, N1,N1-dimethyl-N4-(2-(piperidin-1-ylmethyl)phenyl)benzene-1,4-disulfonamide]  50 µM
26. CN(C)c1ccccc1NS(=O)(=O)c1ccc(S(=O)(=O)N(C)C)cc1 [Example 3, N4-[2-(dimethylamino)phenyl]-N1,N1-dimethylbenzene-1,4-disulfonamide]  50.2 µM
27. CCc1ccc(S(=O)(=O)N(C)c2ccccc2N2CC3CCC2C3)s1 (stereo not drawn) [Example 21, N-(2-{2-azabicyclo[2.2.1]heptan-2-yl}phenyl)-5-ethyl-N-methylthiophene-2-sulfonamide]  55.6 µM
28. CN(C)c1ccc(S(=O)(=O)Nc2ccccc2N2CCCCC2)cc1 [Example 2, 4-(dimethylamino)-N-[2-(piperidin-1-yl)phenyl]benzene-1-sulfonamide]  58.9 µM
29. CN(C(=O)c1ccc(S(=O)(=O)N(C)C)cc1)c1ccccc1N1CCCCC1 [Example 15, 4-(dimethylsulfamoyl)-N-methyl-N-[2-(piperidin-1-yl)phenyl]benzamide]  59.1 µM
30. CN(C)S(=O)(=O)c1ccc(S(=O)(=O)Nc2ccccc2N2CCc3ccccc32)cc1 [Example 8, N4-[2-(2,3-dihydro-1H-indol-1-yl)phenyl]-N1,N1-dimethylbenzene-1,4-disulfonamide]  64 µM
31. CN(C)S(=O)(=O)c1ccc(CC(=O)Nc2ccccc2N2CCCC2)cc1 [Example 7, 2-[4-(dimethylsulfamoyl)phenyl]-N-[2-(pyrrolidin-1-yl)phenyl]acetamide]  85.4 µM
32. O=S(=O)(Nc1ccccc1N1CCCCC1)c1cc2ccccc2s1 [Example 1, N-[2-(piperidin-1-yl)phenyl]-1-benzothiophene-2-sulfonamide]  91.1 µM
33. CN(C)S(=O)(=O)c1ccc(S(=O)(=O)NC2CCCCC2N2CCCCC2)cc1 (stereo not drawn) [Example 22, N1,N1-dimethyl-N4-[2-(piperidin-1-yl)cyclohexyl]benzene-1,4-disulfonamide]  98 µM
